From patent publication US20120115852A1, “HETEROCYCLIC COMPOUNDS AS AUTOTAXIN INHIBITORS” (Merck Patent Gesellschaft Mit Beschrankter Haftung, priority 2009, published 2012)

Target: T1, recombinant autotaxin (Homo sapiens, UniProt Q13822)
T1 construct: made in house; host or cells: Hi5 insect cells (baculovirus)
Experiment: Autotaxin test (enzyme test), Amplex Red fluorescence with LPC substrate
Assay type: biochemical
Conditions: autotaxin inhibition (enzyme test); for remaining activity at 10 µM: 10 μM compound, read-out: % Control at 10 μM
In short: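 Activity was inferred from H2O2 made from released choline, detected as Amplex Red/peroxidase fluorescence (485 nm excitation, 612 nm emission, kinetic read). Beforehand, Hi5-expressed autotaxin sat with compound 30 min at 22° C, then hydrolysed 75 μM final LPC for 90 min at 37° C, pH 8 Tris buffer.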

SMILES | remaining activity at 10 µM [%] | IC50 [µM]
CC(C)(C)CC(=O)N1CCN2C(=O)c3cc(-c4ccc(Cl)cc4Cl)ccc3NC(=O)C2C1 (stereo not shown) [Compound A78, 7-(2,4-Dichlorophenyl)-2-(3,3-dimethylbutyryl)-1,3,4,11a-tetrahydro-2H,10H-2,4a,10-triaza-dibenzo[a,d]cycloheptene-5,11-dione] | 16 | > 1
CC(C)(C)CC(=O)N1CCN2C(=O)c3cc(-c4cc(F)c(Cl)c(F)c4)ccc3NC(=O)C2C1 (stereo not shown) [Compound A79, 7-(4-Chloro-3,5-difluorophenyl)-2-(3,3-dimethyl-butyryl)-1,3,4,11a-tetrahydro-2H,10H-2,4a,10-triazadibenzo[a,d]cycloheptene-5,11-dione] | -14 | 0.1 to 1
O=C1Nc2ccc(-c3ccc(Cl)cc3)cc2C(=O)N2CCN(C(=O)[C@@H]3CCCN3C3CCNCC3)C[C@@H]12 [Compound A81, (S)-7-(4-Chlorophenyl)-2-((S)-1-piperidin-4-yl-pyrrolidine-2-carbonyl)-1,3,4,11a-tetrahydro-2H,10H-2,4a,10-triazadibenzo[a,d]cycloheptene-5,11-dione] | 33 | 
Cc1ccc(-c2ccc3c(c2)C(=O)N2CCN(C(=O)CC(C)(C)C)CC2C(=O)N3)c(F)c1F (stereo not shown) [Compound A82, 7-(2,3-Difluoro-4-methylphenyl)-2-(3,3-dimethyl-butyryl)-1,3,4,11a-tetrahydro-2H,10H-2,4a,10-triazadibenzo[a,d]cycloheptene-5,11-dione] | -16 | 0.1 to 1
CC(C)(C)CC(=O)N1CCN2C(=O)c3cc(-c4cc(Cl)ccc4F)ccc3NC(=O)C2C1 (stereo not shown) [Compound A85, 7-(5-Chloro-2-fluorophenyl)-2-(3,3-dimethylbutyryl)-1,3,4,11a-tetrahydro-2H,10H-2,4a,10-triaza-dibenzo[a,d]cycloheptene-5,11-dione] | 13 | > 1
Cc1ccc(-c2ccc3c(c2)C(=O)N2CCN(C(=O)CC(C)(C)C)CC2C(=O)N3)c(C)c1 (stereo not shown) [Compound A86, 2-(3,3-Dimethylbutyryl)-7-(2,4-dimethylphenyl)-1,3,4,11a-tetrahydro-2H,10H-2,4a,10-triaza-dibenzo[a,d]cycloheptene-5,11-dione] | 78 | 
CC(C)(C)CC(=O)N1CCN2C(=O)c3cc(-c4cccc(F)c4F)ccc3NC(=O)C2C1 (stereo not shown) [Compound A88, 7-(2,3-Difluorophenyl)-2-(3,3-dimethylbutyryl)-1,3,4,11a-tetrahydro-2H,10H-2,4a,10-triaza-dibenzo[a,d]cycloheptene-5,11-dione] | -6 | > 1
CC(C)(C)CC(=O)N1CCN2C(=O)c3cc(-c4cc(F)ccc4F)ccc3NC(=O)C2C1 (stereo not shown) [Compound A89, 7-(2,5-Difluorophenyl)-2-(3,3-dimethylbutyryl)-1,3,4,11a-tetrahydro-2H,10H-2,4a,10-triaza-dibenzo[a,d]cycloheptene-5,11-dione] | 4 | > 1
CC(C)(C)CC(=O)N1CCN2C(=O)c3cc(-c4ccc(Cl)c(F)c4)ccc3NC(=O)C2C1 (stereo not shown) [Compound A94, 7-(4-Chloro-3-fluorophenyl)-2-(3,3-dimethylbutyryl)-1,3,4,11a-tetrahydro-2H,10H-2,4a,10-triaza-dibenzo[a,d]cycloheptene-5,11-dione] | -18 | > 1
CC(C)(C)[C@H](O)C(=O)N1CCN2C(=O)c3cc(-c4ccc(Cl)cc4F)ccc3NC(=O)[C@H]2C1 [Compound A96, (R)-7-(4-Chloro-2-fluorophenyl)-2-((S)-2-hydroxy-3,3-dimethylbutyryl)-1,3,4,11a-tetrahydro-2H,10H-2,4a,10-triazadibenzo[a,d]cycloheptene-5,11-dione] | 1 | 0.1 to 1
Cn1cc(CCC(=O)N2CCN3C(=O)c4cc(-c5ccc(Cl)cc5F)ccc4NC(=O)[C@H]3C2)cn1 [Compound A97, (R)-7-(4-Chloro-2-fluorophenyl)-2-[3-(1-methyl-1H-pyrazol-4-yl)propionyl]-1,3,4,11a-tetrahydro-2H,10H-2,4a,10-triazadibenzo[a,d]cycloheptene-5,11-dione] | 19 | 0.1 to 1
Cn1cc(CCC(=O)N2CCN3C(=O)c4cc(-c5ccc(Cl)cc5F)ccc4NC(=O)[C@@H]3C2)cn1 [Compound A98, (S)-7-(4-Chloro-2-fIuorophenyl)-2-[3-(1-methyl-1H-pyrazol-4-yl)propionyl]-1,3,4,11a-tetrahydro-2H,10H-2,4a,10-triazadibenzo[a,d]cycloheptene-5,11-dione] | 90 | > 1
O=C1Nc2ccc(-c3ccc(Cl)cc3F)cc2C(=O)N2CCN(C(=O)[C@@H]3CCCN3C3CCNCC3)CC12 (stereo partly drawn) [Compound A99, 7-(4-Chloro-2-fluorophenyl)-2-((S)-1-piperidin-4-yl-pyrrolidine-2-carbonyl)-1,3,4,11a-tetrahydro-2H,10H-2,4a,10-triazadibenzo[a,d]cycloheptene-5,11-dione] | 19 | > 1
Cc1ccc(-c2ccc3c(c2)C(=O)N2CCN(C(=O)[C@@H]4CCCN4C4CCNCC4)C[C@@H]2C(=O)N3)c(F)c1F [Compound A101, (R)-7-(2,3-Difluoro-4-methylphenyl)-2-((S)-1-piperidin-4-ylpyrrolidine-2-carbonyl)-1,3,4,11a-tetrahydro-2H,10H-2,4a,10-triaza-dibenzo[a,d]cycloheptene-5,11-dione] | 8 | 0.1 to 1
O=C1Nc2ccc(-c3ccc(Cl)c(F)c3)cc2C(=O)N2CCN(C(=O)[C@@H]3CCCN3C3CCNCC3)C[C@H]12 [Compound A102, (R)-7-(4-Chloro-3-fluorophenyl)-2-((S)-1-piperidin-4-ylpyrrolidine-2-carbonyl)-1,3,4,11a-tetrahydro-2H,10H-2,4a,10-triazadibenzo[a,d]cycloheptene-5,11-dione] | 7 | 0.1 to 1

The remaining lines, values ahead:

remaining activity at 10 µM [%] | IC50 [µM] | SMILES
44 |  | CC(C)(C)[C@H](N)C(=O)N1CCN2C(=O)c3cc(-c4ccc(Cl)cc4)ccc3NC(=O)[C@@H]2C1 [Compound A80, (S)-2-((S)-2-Amino-3,3-dimethylbutyryl)-7-(4-chloro-phenyl)-1,3,4,11a-tetrahydro-2H,10H-2,4a,10-triaza-dibenzo[a,d]cycloheptene-5,11-dione]
81 |  | CC(C)(C)CC(=O)N1CCN2C(=O)c3cc(-c4cc(C(F)(F)F)ccc4F)ccc3NC(=O)C2C1 (stereo not shown) [Compound A83, 2-(3,3-Dimethylbutyryl)-7-(2-fluoro-5-trifluoromethyl-phenyl)-1,3,4,11a-tetrahydro-2H,10H-2,4a,10-triazadibenzo[a,d]cycloheptene-5,11-dione]
29 |  | CC(C)(C)CC(=O)N1CCN2C(=O)c3cc(-c4ccc(C(F)(F)F)cc4F)ccc3NC(=O)C2C1 (stereo not shown) [Compound A84, 2-(3,3-Dimethylbutyryl)-7-(2-fluoro-4-trifluoromethyl-phenyl)-1,3,4,11a-tetrahydro-2H,10H-2,4a,10-triazadibenzo[a,d]cycloheptene-5,11-dione]
74 | > 1 | CC(C)(C)CC(=O)N1CCN2C(=O)c3cc(-c4cccc(C(F)(F)F)c4)ccc3NC(=O)C2C1 (stereo not shown) [Compound A87, 2-(3,3-Dimethylbutyryl)-7-(3-trifluoromethylphenyl)-1,3,4,11a-tetrahydro-2H,10H-2,4a,10-triaza-dibenzo[a,d]cycloheptene-5,11-dione]
24 | > 1 | Cc1ccc(-c2ccc3c(c2)C(=O)N2CCN(C(=O)CC(C)(C)C)CC2C(=O)N3)cc1C (stereo not shown) [Compound A90, 2-(3,3-Dimethylbutyryl)-7-(3,4-dimethylphenyl)-1,3,4,11a-tetrahydro-2H,10H-2,4a,10-triaza-dibenzo[a,d]cycloheptene-5,11-dione]
-6 | > 1 | CC(C)(C)CC(=O)N1CCN2C(=O)c3cc(-c4ccc(F)cc4F)ccc3NC(=O)C2C1 (stereo not shown) [Compound A91, 7-(2,4-Difluorophenyl)-2-(3,3-dimethylbutyryl)-1,3,4,11a-tetrahydro-2H,10H-2,4a,10-triaza-dibenzo[a,d]cycloheptene-5,11-dione]
1 | > 1 | CC(C)(C)CC(=O)N1CCN2C(=O)c3cc(-c4cc(F)c(F)cc4F)ccc3NC(=O)C2C1 (stereo not shown) [Compound A92, 2-(3,3-Dimethylbutyryl)-7-(2,4,5-trifluorophenyl)-1,3,4,11a-tetrahydro-2H,10H-2,4a,10-triaza-dibenzo[a,d]cycloheptene-5,11-dione]
17 |  | O=C1Nc2ccc(-c3ccc(Cl)cc3F)cc2C(=O)N2CCN(C(=O)[C@H]3CCCN3C3CCNCC3)CC12 (stereo partly drawn) [Compound A93, 7-(4-Chloro-2-fluorophenyl)-2-((R)-1-piperidin-4-ylpyrrolidine-2-carbonyl)-1,3,4,11a-tetrahydro-2H,10H-2,4a,10-triazadibenzo[a,d]cycloheptene-5,11-dione]
15 | > 1 | Cn1cc(CCC(=O)N2CCN3C(=O)c4cc(-c5ccc(Cl)cc5F)ccc4NC(=O)C3C2)cn1 (stereo not shown) [Compound A95, 7-(4-Chloro-2-fluorophenyl)-2-[3-(1-methyl-1H-pyrazol-4-yl)propionyl]-1,3,4,11a-tetrahydro-2H,10H-2,4a,10-triazadibenzo[a,d]cycloheptene-5,11-dione]
11 | > 1 | CC(C)(C)CC(=O)N1CCN2C(=O)c3cc(-c4ccc(Cl)cc4F)ccc3NC(=O)[C@H]2C1 [Compound A100, (R)-7-(4-Chloro-2-fluorophenyl)-2-(3,3-dimethyl-butyryl)-1,3,4,11a-tetrahydro-2H,10H-2,4a,10-triazadibenzo[a,d]cycloheptene-5,11-dione]
-10 | > 1 | CC(C)(C)CC(=O)N1CCN2C(=O)c3cc(-c4ccccc4Cl)ccc3NC(=O)C2C1 (stereo not shown) [Compound A103, 7-(2-Chlorophenyl)-2-(3,3-dimethylbutyryl)-1,3,4,11a-tetrahydro-2H,10H-2,4a,10-triaza-dibenzo[a,d]cycloheptene-5,11-dione]
